From PubChem BioAssay (NCI)
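Interpolation was linear, between the two tested concentrations surrounding the appropriate level; five concentrations were tested over 48 hours in 96-well plates. The concentration for 50% growth inhibition is given as GI50. The concentration for full growth arrest is given as TGI.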

Tests used:
Experiment in all cases: NCI tumour cell line growth inhibition, 48 h
A549 NSCLC = tested on: A549 NSCLC
KM12 colon = tested on: KM12 colon
RXF 393 renal = tested on: RXF 393 renal
RPMI-8226 leukemia = tested on: RPMI-8226 leukemia
SK-MEL-28 melanoma = tested on: SK-MEL-28 melanoma
HCT-15 colon = tested on: HCT-15 colon
SNB-19 CNS = tested on: SNB-19 CNS
SF-539 CNS = tested on: SF-539 CNS
IGROV1 ovarian = tested on: IGROV1 ovarian
SK-MEL-5 melanoma = tested on: SK-MEL-5 melanoma

Compound | TGI (A549 NSCLC) | TGI (KM12 colon) | TGI (RXF 393 renal) | TGI (RPMI-8226 leukemia) | TGI (SK-MEL-28 melanoma) | TGI (HCT-15 colon) | TGI (SNB-19 CNS) | TGI (SF-539 CNS) | TGI (IGROV1 ovarian) | TGI (SK-MEL-5 melanoma) | GI50 (A549 NSCLC) | GI50 (RXF 393 renal) | GI50 (RPMI-8226 leukemia) | GI50 (SK-MEL-28 melanoma) | GI50 (HCT-15 colon) | GI50 (SNB-19 CNS) | GI50 (SF-539 CNS) | GI50 (IGROV1 ovarian) | GI50 (SK-MEL-5 melanoma) | GI50 (KM12 colon)
O=C(c1nc2ccc(Cl)cc2[nH]c1=O)C(O)c1cccc([N+](=O)[O-])c1 (stereo not given) | > 100 µM | > 100 µM | > 100 µM | > 100 µM | 61.5 µM | > 100 µM | > 100 µM | > 100 µM | > 100 µM | > 100 µM |  |  |  |  |  |  |  |  |  | 
CC/C(=N/O)C(C)C(=O)CCC(=O)Nc1ccc(Cl)cc1 (stereo not given) | > 100 µM | > 100 µM | > 100 µM | > 100 µM | > 100 µM | > 100 µM | > 100 µM | > 100 µM | > 100 µM | > 100 µM |  |  |  |  |  |  |  |  |  | 
OCC(O)C(OC1OC(CO)C(O)C(O)C1O)c1nn(-c2ccc(Cl)cc2)c2nc3cc(Cl)c(Cl)cc3nc12 (stereo not given) |  | > 100 µM | > 100 µM | > 100 µM | > 100 µM | > 100 µM | > 100 µM | > 100 µM |  |  |  |  |  |  |  |  |  |  |  | 
Cc1cccc(/C=N/N=C(\N)NO)n1 | > 100 µM | > 100 µM | > 100 µM |  | > 100 µM |  |  | > 100 µM | > 100 µM | > 100 µM |  |  |  |  |  |  |  |  |  | 
O=C(CC(=O)c1cccc2ccccc12)C(=O)Nc1nccs1 | > 100 µM | > 100 µM | > 100 µM | > 100 µM | > 100 µM | > 100 µM |  | > 100 µM | > 100 µM | > 100 µM |  |  |  |  |  |  |  |  |  | 
CCOc1ccc2c(c1)[n+]([O-])c(-c1ccc([N+](=O)[O-])cc1)c(N)[n+]2[O-] | > 100 µM | > 100 µM | > 100 µM |  | > 100 µM |  | > 100 µM | > 100 µM | > 100 µM | > 100 µM |  |  |  |  |  |  |  |  |  | 
CC(C)CCCC(C)[C@H]1CCC2C3CC=C4C[C@@H](OC(=O)CC(CC(=O)[O-])C(=O)[O-])CC[C@]4(C)C3CC[C@@]21C.N.N.[Pt+4] (stereo not given in full) | > 100 µM |  | > 100 µM | > 100 µM | > 100 µM | > 100 µM | > 100 µM | > 100 µM | > 100 µM | > 100 µM | > 100 µM | 47.1 µM | > 100 µM | > 100 µM | > 100 µM | > 100 µM | > 100 µM | > 100 µM | > 100 µM | 
COC(=O)c1ccc(N/C=C(/C#N)c2ccsc2)cc1 | 40.3 µM | 32.2 µM | 23.9 µM | > 100 µM | 45.6 µM | > 100 µM | 29.8 µM | 32.3 µM | 65.2 µM |  |  |  |  |  |  |  |  |  |  | 
O=C(Cc1ccccc1)N/N=C(/c1nc2ccc([N+](=O)[O-])cc2[nH]c1=O)C(O)c1ccco1 (stereo not given) | > 100 µM | > 100 µM |  | > 100 µM | > 100 µM | > 100 µM |  | > 100 µM | > 100 µM | > 100 µM |  |  |  |  |  |  |  |  |  | 
CCOC(=O)C1=C(Nc2cccc3ccccc23)OCC1=O | > 100 µM | > 100 µM |  | > 100 µM | > 100 µM |  | > 100 µM | > 100 µM | > 100 µM | > 100 µM |  |  |  |  |  |  |  |  |  | 
CC(C)(C)c1cc(C#N)c2c(c1)C(=O)OC2(c1ccccc1)c1ccccc1C#N (stereo not given) | > 100 µM | > 100 µM | > 100 µM |  | > 100 µM | > 100 µM | > 100 µM | > 100 µM | > 100 µM |  |  |  |  |  |  |  |  |  |  | 
COc1ccc2c3c1OC1C4(CCC5C(C2)N(CC2CC2)CCC351)OCCO4 (stereo not given) | > 100 µM | > 100 µM | > 100 µM | > 100 µM | > 100 µM | > 100 µM | > 100 µM |  | > 100 µM | > 100 µM |  |  |  |  |  |  |  |  |  | 
CC(C)(C)[Si](C)(C)O/N=C\c1cccc(O[Si](C)(C)C(C)(C)C)c1 | 37.4 µM | 32.2 µM | 37.4 µM | 37.4 µM |  | 35.7 µM | 36.6 µM | 46.7 µM | 34.9 µM | 34.2 µM |  |  |  |  |  |  |  |  |  | 
O=CCC(O)C(O)C(O)CO (stereo not given) | > 100 µM | > 100 µM |  | > 100 µM | > 100 µM | > 100 µM | > 100 µM |  | > 100 µM | > 100 µM | > 100 µM |  | > 100 µM | > 100 µM | > 100 µM | > 100 µM |  | > 100 µM | > 100 µM | > 100 µM
COC(=O)CCC(=O)Nc1cc(C)ccc1C | > 100 µM | > 100 µM | > 100 µM | > 100 µM | > 100 µM |  | > 100 µM | > 100 µM | > 100 µM | > 100 µM |  |  |  |  |  |  |  |  |  | 
Cc1ccc(Nn2c(SCC(=O)Nc3nc(-c4ccccc4)cs3)nc(C)c2C)cc1 | > 100 µM | 19.1 µM |  |  |  | > 100 µM | > 100 µM | 35.2 µM | > 100 µM | 5.72 µM | 3.03 µM |  |  |  | 5.17 µM | 7.5 µM | 4.68 µM | 4.59 µM | 2 µM | 4.13 µM
CCSc1nnc(-c2ccc3ccccc3c2O)n1-c1ccccc1 |  |  | > 100 µM |  | > 100 µM | > 100 µM |  | > 100 µM | > 100 µM |  |  | > 100 µM |  | > 100 µM | 2.72 µM |  | > 100 µM | 7.59 µM |  | 
CC(NNC(=S)N1CCN(c2ccccn2)CC1)c1cccc[n+]1[O-] (stereo not given) | > 100 µM | > 100 µM | > 100 µM |  | > 100 µM | > 100 µM | > 100 µM | 84.2 µM | > 100 µM | 34.8 µM |  |  |  |  |  |  |  |  |  | 
C=C(C)C1Cc2cc(C(C)=O)ccc2O1 (stereo not given) | > 100 µM | > 100 µM |  | > 100 µM | > 100 µM | > 100 µM | > 100 µM | > 100 µM | > 100 µM | > 100 µM |  |  |  |  |  |  |  |  |  | 
CC1=CC[C@@H]2C(=O)C=CC=C[C@H]12.[C-]#[O+].[C-]#[O+].[C-]#[O+].[Fe] | > 100 µM | > 100 µM | > 100 µM | > 100 µM | > 100 µM | > 100 µM | > 100 µM | > 100 µM |  | > 100 µM | > 100 µM | > 100 µM | > 100 µM | > 100 µM | > 100 µM | > 100 µM | > 100 µM |  | > 100 µM | > 100 µM
